Laboratory results from ChEMBL document CHEMBL5291721, “A preclinical secondary pharmacology resource illuminates target-adverse drug reaction associations of marketed drugs” (Nat Commun, 2023).

How the values were obtained:
[1] = target: T1, Gastrin/cholecystokinin type B receptor (Homo sapiens, UniProt P32239)
T1 sequence (P32239 whole entry): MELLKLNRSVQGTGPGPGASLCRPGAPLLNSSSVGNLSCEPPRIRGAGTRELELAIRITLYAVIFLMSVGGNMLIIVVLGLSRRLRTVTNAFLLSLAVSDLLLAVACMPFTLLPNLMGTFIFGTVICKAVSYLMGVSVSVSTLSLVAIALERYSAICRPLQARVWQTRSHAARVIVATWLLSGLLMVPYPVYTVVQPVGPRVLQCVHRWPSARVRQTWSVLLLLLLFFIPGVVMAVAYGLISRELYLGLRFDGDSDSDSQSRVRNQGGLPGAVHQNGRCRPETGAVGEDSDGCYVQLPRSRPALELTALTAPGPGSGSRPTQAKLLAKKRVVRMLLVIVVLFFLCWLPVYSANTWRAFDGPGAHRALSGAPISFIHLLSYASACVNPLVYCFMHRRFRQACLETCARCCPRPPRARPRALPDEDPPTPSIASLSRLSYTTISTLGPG

Cannabinoid receptor 1 = Cannabinoid receptor 1 (Homo sapiens, UniProt P21554)
Cannabinoid receptor 1, sequence (P21554 whole entry): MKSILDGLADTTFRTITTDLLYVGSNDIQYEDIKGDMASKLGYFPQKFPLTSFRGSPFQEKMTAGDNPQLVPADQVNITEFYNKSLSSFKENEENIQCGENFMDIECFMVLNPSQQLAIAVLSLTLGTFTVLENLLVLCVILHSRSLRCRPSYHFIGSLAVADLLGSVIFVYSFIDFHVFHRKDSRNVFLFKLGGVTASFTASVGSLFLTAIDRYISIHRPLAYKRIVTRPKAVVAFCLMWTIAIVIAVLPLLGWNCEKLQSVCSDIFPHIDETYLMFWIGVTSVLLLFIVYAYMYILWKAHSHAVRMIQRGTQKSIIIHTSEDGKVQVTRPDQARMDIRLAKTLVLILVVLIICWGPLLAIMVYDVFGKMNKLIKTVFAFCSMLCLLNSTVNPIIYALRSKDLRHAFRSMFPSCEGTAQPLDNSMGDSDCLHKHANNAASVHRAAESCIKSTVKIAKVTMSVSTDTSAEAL

[2] = target: Growth hormone secretagogue receptor type 1 (Homo sapiens, UniProt Q92847)
Growth hormone secretagogue receptor type 1, sequence (Q92847 whole entry): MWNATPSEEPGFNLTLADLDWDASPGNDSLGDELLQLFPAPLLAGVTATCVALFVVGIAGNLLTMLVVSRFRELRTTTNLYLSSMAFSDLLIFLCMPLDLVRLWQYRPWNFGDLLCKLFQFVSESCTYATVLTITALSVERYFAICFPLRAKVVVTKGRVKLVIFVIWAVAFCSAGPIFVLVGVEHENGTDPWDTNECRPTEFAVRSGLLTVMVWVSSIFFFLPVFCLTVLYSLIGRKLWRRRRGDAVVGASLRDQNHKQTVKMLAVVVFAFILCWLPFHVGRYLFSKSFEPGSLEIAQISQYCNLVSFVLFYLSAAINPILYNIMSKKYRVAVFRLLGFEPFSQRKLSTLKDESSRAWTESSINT

[3] = target: T2, 5-hydroxytryptamine receptor 2B (Homo sapiens, UniProt P41595)
T2 sequence (P41595 whole entry): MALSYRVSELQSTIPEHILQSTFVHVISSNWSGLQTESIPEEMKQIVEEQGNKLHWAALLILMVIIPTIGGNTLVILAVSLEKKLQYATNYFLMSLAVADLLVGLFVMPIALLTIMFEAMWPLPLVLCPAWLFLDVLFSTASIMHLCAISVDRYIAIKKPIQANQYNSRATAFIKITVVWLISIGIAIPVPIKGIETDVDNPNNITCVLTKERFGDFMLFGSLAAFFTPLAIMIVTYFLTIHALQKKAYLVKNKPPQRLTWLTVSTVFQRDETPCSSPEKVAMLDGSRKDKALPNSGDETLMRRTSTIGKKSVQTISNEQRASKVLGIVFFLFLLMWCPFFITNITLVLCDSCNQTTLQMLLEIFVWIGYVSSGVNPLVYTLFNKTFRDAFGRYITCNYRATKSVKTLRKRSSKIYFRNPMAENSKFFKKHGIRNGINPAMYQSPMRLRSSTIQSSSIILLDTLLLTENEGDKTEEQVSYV

Melanocortin receptor 4 = Melanocortin receptor 4 (Homo sapiens, UniProt P32245)
Melanocortin receptor 4, sequence (P32245 whole entry): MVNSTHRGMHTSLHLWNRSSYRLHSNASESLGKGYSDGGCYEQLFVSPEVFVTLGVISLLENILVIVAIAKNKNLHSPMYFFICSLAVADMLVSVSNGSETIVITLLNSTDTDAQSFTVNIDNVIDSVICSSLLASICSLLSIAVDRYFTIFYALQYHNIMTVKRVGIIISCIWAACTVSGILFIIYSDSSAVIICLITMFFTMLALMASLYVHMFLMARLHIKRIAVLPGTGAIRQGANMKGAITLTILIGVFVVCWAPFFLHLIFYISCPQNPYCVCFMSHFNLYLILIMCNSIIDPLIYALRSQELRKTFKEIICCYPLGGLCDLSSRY

[4] = target: T3, Neuropeptide Y receptor type 1 (Homo sapiens, UniProt P25929)
T3 sequence (P25929 whole entry): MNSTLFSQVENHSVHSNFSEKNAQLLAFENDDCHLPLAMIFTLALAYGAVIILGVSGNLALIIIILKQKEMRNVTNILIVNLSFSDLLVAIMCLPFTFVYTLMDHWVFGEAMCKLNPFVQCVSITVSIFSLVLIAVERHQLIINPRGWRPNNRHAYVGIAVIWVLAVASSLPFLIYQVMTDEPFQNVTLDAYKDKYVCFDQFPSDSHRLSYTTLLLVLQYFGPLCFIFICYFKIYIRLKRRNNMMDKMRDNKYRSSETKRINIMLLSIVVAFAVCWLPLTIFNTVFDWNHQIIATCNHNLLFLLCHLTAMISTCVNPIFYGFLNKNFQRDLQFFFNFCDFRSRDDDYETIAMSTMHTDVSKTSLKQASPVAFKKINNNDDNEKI

Mu-type opioid receptor = Mu-type opioid receptor (Homo sapiens, UniProt P35372)
Mu-type opioid receptor, sequence (P35372 whole entry): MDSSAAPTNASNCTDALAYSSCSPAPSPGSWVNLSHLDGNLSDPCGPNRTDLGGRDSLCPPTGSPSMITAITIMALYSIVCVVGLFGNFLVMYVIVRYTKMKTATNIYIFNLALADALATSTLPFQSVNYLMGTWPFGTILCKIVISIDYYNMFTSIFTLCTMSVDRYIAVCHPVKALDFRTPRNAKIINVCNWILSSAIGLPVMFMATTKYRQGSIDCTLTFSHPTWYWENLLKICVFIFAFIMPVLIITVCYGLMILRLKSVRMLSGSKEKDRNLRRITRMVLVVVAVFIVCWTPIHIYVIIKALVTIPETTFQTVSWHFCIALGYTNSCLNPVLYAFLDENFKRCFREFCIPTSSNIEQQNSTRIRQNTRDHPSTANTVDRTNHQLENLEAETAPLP

[5] = target: T4, Alpha-1A adrenergic receptor (Homo sapiens, UniProt P35348)
T4 sequence (P35348 whole entry): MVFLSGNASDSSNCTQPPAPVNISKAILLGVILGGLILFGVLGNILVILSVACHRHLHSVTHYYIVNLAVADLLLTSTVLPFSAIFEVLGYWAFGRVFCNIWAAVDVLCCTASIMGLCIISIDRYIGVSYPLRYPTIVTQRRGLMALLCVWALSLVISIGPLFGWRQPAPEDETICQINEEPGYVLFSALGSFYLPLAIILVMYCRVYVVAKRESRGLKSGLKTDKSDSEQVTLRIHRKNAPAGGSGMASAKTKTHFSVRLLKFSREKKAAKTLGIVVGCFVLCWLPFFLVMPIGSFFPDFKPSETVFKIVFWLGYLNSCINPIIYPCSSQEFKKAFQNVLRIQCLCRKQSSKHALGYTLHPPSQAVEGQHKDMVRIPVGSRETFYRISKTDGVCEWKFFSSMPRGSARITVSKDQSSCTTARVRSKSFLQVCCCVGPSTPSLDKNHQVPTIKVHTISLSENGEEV

[6] = target: T2, 5-hydroxytryptamine receptor 2B; type: functional, cell-based
[7] = target: T5, Prostaglandin G/H synthase 1 (Rattus norvegicus, UniProt Q63921); type: functional
T5 sequence (Q63921 whole entry): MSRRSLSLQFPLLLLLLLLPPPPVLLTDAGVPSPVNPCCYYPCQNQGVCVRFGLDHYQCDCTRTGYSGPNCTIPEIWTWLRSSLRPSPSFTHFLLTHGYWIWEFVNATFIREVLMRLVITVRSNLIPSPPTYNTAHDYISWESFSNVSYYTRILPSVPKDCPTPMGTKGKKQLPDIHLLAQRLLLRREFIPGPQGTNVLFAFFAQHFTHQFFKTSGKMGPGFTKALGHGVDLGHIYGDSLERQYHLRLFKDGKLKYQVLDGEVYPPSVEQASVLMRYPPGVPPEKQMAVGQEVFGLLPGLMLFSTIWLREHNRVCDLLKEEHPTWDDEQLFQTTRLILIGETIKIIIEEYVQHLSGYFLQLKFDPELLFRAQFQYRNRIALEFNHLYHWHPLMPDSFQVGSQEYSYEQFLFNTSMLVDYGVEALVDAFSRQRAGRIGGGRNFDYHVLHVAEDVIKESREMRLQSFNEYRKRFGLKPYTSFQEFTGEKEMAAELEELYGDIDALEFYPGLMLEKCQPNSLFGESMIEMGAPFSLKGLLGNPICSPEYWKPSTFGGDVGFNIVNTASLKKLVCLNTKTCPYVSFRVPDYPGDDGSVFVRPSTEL

[8] = target: T6, Amine oxidase [flavin-containing] A (Homo sapiens, UniProt P21397); type: functional
T6 sequence (P21397 whole entry): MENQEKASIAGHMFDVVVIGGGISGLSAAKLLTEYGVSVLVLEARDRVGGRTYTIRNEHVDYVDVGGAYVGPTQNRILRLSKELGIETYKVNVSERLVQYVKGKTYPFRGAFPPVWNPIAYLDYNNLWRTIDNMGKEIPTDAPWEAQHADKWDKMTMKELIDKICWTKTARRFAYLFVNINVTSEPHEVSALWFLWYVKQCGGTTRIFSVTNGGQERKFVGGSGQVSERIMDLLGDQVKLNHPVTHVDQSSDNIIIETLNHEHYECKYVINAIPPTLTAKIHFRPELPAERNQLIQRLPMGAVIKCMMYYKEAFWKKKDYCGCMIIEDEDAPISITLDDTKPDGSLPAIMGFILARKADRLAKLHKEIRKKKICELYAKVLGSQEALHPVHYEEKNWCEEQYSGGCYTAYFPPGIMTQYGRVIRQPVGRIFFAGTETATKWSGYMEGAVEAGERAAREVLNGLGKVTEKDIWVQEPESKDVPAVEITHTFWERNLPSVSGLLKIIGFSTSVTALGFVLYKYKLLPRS

[9] = target: T4, Alpha-1A adrenergic receptor; type: functional, cell-based
[10] = target: T4, Alpha-1A adrenergic receptor; type: functional, cell-based; remark: listed apart in the source
Also: assay procedure not described here.

N#Cc1ccc([C@H]2CCc3cncn32)c(F)c1 [OSILODROSTAT]
AC50 [1]: > 10 µM | AC50 (Cannabinoid receptor 1): > 10 µM | AC50 [2]: > 10 µM | AC50 [3]: > 10 µM | AC50 (Melanocortin receptor 4): > 10 µM | AC50 [4]: > 10 µM | AC50 (Mu-type opioid receptor): > 10 µM

CCCN(CCC)C(=O)C(CCC(=O)O)NC(=O)c1ccccc1 (stereo unspecified) [PROGLUMIDE]
AC50 [5]: > 30 µM | AC50 (Cannabinoid receptor 1): > 10 µM | AC50 [2]: > 30 µM | AC50 [6]: > 10 µM | AC50 [3]: > 10 µM | AC50 (Melanocortin receptor 4): > 30 µM | AC50 [4]: > 30 µM | AC50 [7]: > 30 µM | AC50 (Mu-type opioid receptor): > 30 µM | AC50 [8]: > 30 µM

CC[C@@H]1C(=O)OC[C@@H]1Cc1cncn1C [PILOCARPINE]
AC50 [9]: > 30 µM | AC50 [5]: > 10 µM | AC50 [1]: > 30 µM | AC50 (Cannabinoid receptor 1): 16.1 µM | AC50 [2]: > 30 µM | AC50 [6]: > 10 µM | AC50 [3]: > 10 µM | AC50 (Melanocortin receptor 4): > 30 µM | AC50 [4]: > 30 µM | AC50 [7]: > 30 µM | AC50 (Mu-type opioid receptor): > 30 µM | AC50 [8]: > 10 µM | AC50 [10]: > 30 µM

CCCCc1ncc(/C=C(\Cc2cccs2)C(=O)O)n1Cc1ccc(C(=O)O)cc1 [EPROSARTAN]
AC50 [9]: > 30 µM | AC50 [5]: > 10 µM | AC50 [1]: > 10 µM | AC50 (Cannabinoid receptor 1): > 10 µM | AC50 [2]: > 10 µM | AC50 [6]: > 10 µM | AC50 [3]: > 10 µM | AC50 (Melanocortin receptor 4): > 10 µM | AC50 [4]: > 10 µM | AC50 [7]: > 30 µM | AC50 (Mu-type opioid receptor): > 10 µM | AC50 [8]: > 10 µM | AC50 [10]: > 30 µM

CCc1c(Cl)c(O)c(Cl)c(O)c1C(=O)O[C@H]1[C@H](O)[C@H](OC)[C@H](OC/C2=C\C=C\C[C@H](O)/C(C)=C/[C@H](CC)[C@@H](O[C@@H]3OC(C)(C)[C@@H](OC(=O)C(C)C)[C@H](O)[C@@H]3O)/C(C)=C/C(C)=C/C[C@@H]([C@@H](C)O)OC2=O)O[C@@H]1C [FIDAXOMICIN]
AC50 [1]: 7.9 µM | AC50 (Cannabinoid receptor 1): > 10 µM | AC50 [2]: > 30 µM | AC50 [6]: > 30 µM | AC50 [3]: > 10 µM | AC50 (Melanocortin receptor 4): > 30 µM | AC50 [4]: > 30 µM | AC50 [7]: > 30 µM | AC50 (Mu-type opioid receptor): > 10 µM | AC50 [8]: > 30 µM

CC(C)(C)c1cc(C(C)(C)C)c(NC(=O)c2c[nH]c3ccccc3c2=O)cc1O [IVACAFTOR]
AC50 [5]: > 10 µM | AC50 [1]: > 30 µM | AC50 (Cannabinoid receptor 1): > 10 µM | AC50 [2]: > 30 µM | AC50 [6]: > 10 µM | AC50 [3]: > 10 µM | AC50 (Melanocortin receptor 4): 25.6 µM | AC50 [4]: > 30 µM | AC50 [7]: > 30 µM | AC50 (Mu-type opioid receptor): > 30 µM | AC50 [8]: > 10 µM

CN1C(=O)C(O)N=C(c2ccccc2)c2cc(Cl)ccc21 (stereo unspecified) [TEMAZEPAM]
AC50 [9]: > 30 µM | AC50 [5]: > 10 µM | AC50 [1]: > 30 µM | AC50 (Cannabinoid receptor 1): > 10 µM | AC50 [2]: > 30 µM | AC50 [6]: > 10 µM | AC50 [3]: > 10 µM | AC50 (Melanocortin receptor 4): > 30 µM | AC50 [4]: > 30 µM | AC50 [7]: > 30 µM | AC50 (Mu-type opioid receptor): > 30 µM | AC50 [8]: > 10 µM

C[C@H](N)[C@H](O)c1cccc(O)c1 [METARAMINOL]
AC50 [5]: 30 µM | AC50 (Cannabinoid receptor 1): > 10 µM | AC50 [2]: > 10 µM | AC50 [6]: 12 µM | AC50 [3]: > 30 µM | AC50 (Melanocortin receptor 4): > 10 µM | AC50 [4]: > 10 µM | AC50 [7]: > 10 µM | AC50 (Mu-type opioid receptor): > 30 µM | AC50 [8]: > 10 µM
